Laboratory results taken from ChEMBL document CHEMBL1795221, “In vitro and in vivo anticancer activity evaluation of ursolic acid derivatives” (Eur J Med Chem, 2011).

Experiments:
BGC-823 = assay: Cytotoxicity against human BGC823 cells after 24 hrs by MTT assay; format: functional, cell-based; details: BGC-823, 24 h
SH-SY5Y = assay: Cytotoxicity against human SH-SY5Y cells after 24 hrs by MTT assay; format: functional, cell-based
[1] = Cytotoxicity against human HELF cells after 24 hrs by MTT assay; format: cell-based
HepG2 = assay: cells; details: Homo sapiens, HepG2, 24 h
Description: Cytotoxicity against human HepG2 cells after 24 hrs by MTT assay

HeLa = assay: cells; details: Homo sapiens, 24 h
Description: Cytotoxicity against human HeLa cells after 24 hrs by MTT assay

SMILES | IC50 (BGC-823) | IC50 (SH-SY5Y) | IC50 [1] | IC50 (HepG2) | IC50 (HeLa)
C[C@H]1[C@H](C)CC[C@]2(C(=O)N3CCN(CCO)CC3)CC[C@]3(C)C(=CC[C@@H]4[C@@]5(C)CC[C@H](O)C(C)(C)[C@@H]5CC[C@]43C)[C@H]12 | 98.3 µM | > 100 µM | 32.8 µM | > 100 µM | 52.3 µM
C[C@H]1[C@H](C)CC[C@]2(C(=O)N3CCN(CCOCCO)CC3)CC[C@]3(C)C(=CC[C@@H]4[C@@]5(C)CC[C@H](O)C(C)(C)[C@@H]5CC[C@]43C)[C@H]12 | 35 µM | 30.3 µM | 28.1 µM | 36.7 µM | 23.8 µM
C[C@H]1[C@H](C)CC[C@]2(C(=O)OCCO[N+](=O)[O-])CC[C@]3(C)C(=CC[C@@H]4[C@@]5(C)CC[C@H](O)C(C)(C)[C@@H]5CC[C@]43C)[C@H]12 | 84.2 µM | 71.1 µM | 68.1 µM | 79.6 µM | 36.2 µM
CCCOC(=O)[C@]12CC[C@@H](C)[C@H](C)[C@H]1C1=CC[C@@H]3[C@@]4(C)CC[C@H](OC(C)=O)C(C)(C)[C@@H]4CC[C@@]3(C)[C@]1(C)CC2 | > 100 µM | > 100 µM | > 100 µM | > 100 µM | > 100 µM
CCCCOC(=O)[C@]12CC[C@@H](C)[C@H](C)[C@H]1C1=CC[C@@H]3[C@@]4(C)CC[C@H](O)C(C)(C)[C@@H]4CC[C@@]3(C)[C@]1(C)CC2 | > 100 µM | > 100 µM | > 100 µM | > 100 µM | 63.2 µM
C[C@H]1[C@H](C)CC[C@]2(C(=O)NCCO)CC[C@]3(C)C(=CC[C@@H]4[C@@]5(C)CC[C@H](O)C(C)(C)[C@@H]5CC[C@]43C)[C@H]12 | 78.3 µM | 65 µM | 52.8 µM | 82.4 µM | 32.3 µM
CCOC(=O)[C@]12CC[C@@H](C)[C@H](C)[C@H]1C1=CC[C@@H]3[C@@]4(C)CC[C@H](OC(C)=O)C(C)(C)[C@@H]4CC[C@@]3(C)[C@]1(C)CC2 | > 100 µM | > 100 µM | > 100 µM | > 100 µM | > 100 µM
CC(=O)O[C@H]1CC[C@]2(C)[C@H]3CC=C4[C@@H]5[C@@H](C)[C@H](C)CC[C@]5(C(=O)N5CCN(CCO)CC5)CC[C@@]4(C)[C@]3(C)CC[C@H]2C1(C)C | 13.9 µM | 11.7 µM | 31 µM | 20.5 µM | 7.24 µM
CCOC(=O)[C@]12CC[C@@H](C)[C@H](C)[C@H]1C1=CC[C@@H]3[C@@]4(C)CC[C@H](O)C(C)(C)[C@@H]4CC[C@@]3(C)[C@]1(C)CC2 | 69.3 µM | 66.3 µM | 81.9 µM | 70.8 µM | 29.2 µM
COC(=O)C(Cc1ccc(O)cc1)NC(=O)[C@]12CC[C@@H](C)[C@H](C)[C@H]1C1=CC[C@@H]3[C@@]4(C)CC[C@H](OC(C)=O)C(C)(C)[C@@H]4CC[C@@]3(C)[C@]1(C)CC2 (stereo not given in full) | 83 µM | > 100 µM | 35.8 µM | > 100 µM | 67 µM
CC(=O)O[C@H]1CC[C@]2(C)[C@H]3CC=C4[C@@H]5[C@@H](C)[C@H](C)CC[C@]5(C(=O)N5CCC(CCO)CC5)CC[C@@]4(C)[C@]3(C)CC[C@H]2C1(C)C | 51.3 µM | 40.1 µM | 30 µM | 59.4 µM | 12.4 µM
COC(=O)C(CO)NC(=O)[C@]12CC[C@@H](C)[C@H](C)[C@H]1C1=CC[C@@H]3[C@@]4(C)CC[C@H](OC(C)=O)C(C)(C)[C@@H]4CC[C@@]3(C)[C@]1(C)CC2 (stereo not given in full) | 29 µM | 37.2 µM | 22.3 µM | 35.3 µM | 20.6 µM
